Data on 1 compound can be found in PMC10394516, “The pharmacokinetic profile of brensocatib and its effect on pharmacodynamic biomarkers including NE, PR3, and CatG in various rodent species” (Frontiers in Pharmacology, 2023).

For one assay, the system named is PR3. Further details: method as in Cipolla et al., 2023. The settings on record: Phase 2 trial in NCFBE (WILLOW); ref Cipolla et al., 2023; cited from earlier work.
For the next assay, the system named is NE. Kind of assay: PD onset study, bone marrow NE activity, C57BL/6 mice. The format is in vivo. The settings on record: for Percent change from vehicle NE: bone marrow, 5 mg/kg BID oral. The method, then:
A 14-day PD onset study was performed in female C57BL/6 mice dosed BID. Mice were dosed by oral gavage either with vehicle (0 mg/kg) or 5 mg/kg brensocatib (BID; 10 mg/kg/day) for 1, 4, 7, 10, or 14 consecutive days. Plasma was collected from animals during the first 24 h of dosing at 1, 2, 8, 9, 10, and 24 h post the initial dose. Note the 8- and 24-h plasma samples were prior to the afternoon dose and the second day dose (if applicable), respectively. Plasma was used for PK analysis via LC-MS/MS. On prescribed days, animals were sacrificed 16 h post final dose, and the hind bones (femurs and tibias) were collected at necropsy for bone marrow analysis of NSP activities by kinetic enzymatic assays.
For the mice, each animal had the femurs and tibias of both hind limbs harvested. For the rat, the femur and tibia from a single hind limb per animal was harvested. Bones were kept on wet ice until processing for bone marrow collection. In brief, bone cutters were used to cut the epiphysis (knobby ends) off the long bones to expose the bone marrow filled cavity. Each bone cavity was then flushed with 5 mL/bone (mouse) or 10 mL/bone (rat) of ice-cold RPMI media through a […] and collected in a 50-mL conical tube. Cells were spun down at 2,500 × g at 4°C for 5 min and the supernatant was aspirated. After which, bone marrow cells were lysed with 1X red blood cell (RBC) lysis buffer (Abcam, ab204733) to eliminate contaminating RBCs and washed with PBS to remove any residual RBC lysis buffer. The resulting white blood cells (WBC) were subsequently lysed with 1% (v/v) Triton X-100 in PBS. Lysates were added to 96-well plates and stored at −80°C until NSP analyses.
Bone marrow lysates prepared as described above were diluted and plated onto 96-well assay plates to quantify NSP activities as described previously ([Basso et al., 2022]). Briefly, peptide substrates for NE (N-Methoxysuccinyl-Ala-Ala-Pro-Val-7-amido-4-methylcoumarin; Sigma; St. Louis, MO; Excitation/Emission at 350/450 nm), PR3 ((7-Methoxycoumarin-4-yl)acetyl-lysyl-(picolinoyl)-Tyr-Asp-Ala-Lys-Gly-Asp-N-3-(2-4-dinitrophenyl)-2-3-diaminopropyonyl-NH2); GenScript; Piscataway, NJ; Excitation/Emission at 340/430 nm), and CatG (N-Succinyl-Ala-Ala-Pro-Phe p nitroanilide; Sigma; Absorbance at 405 nm) were added at a final assay concentration of 100 μM, 40 μM, and 200 μM, respectively, and either fluorescence or absorbance was quantified using a Synergy microplate reader (BioTek; Winooski, VT). The specific NSP activity in each sample was calculated as the total activity minus the activity in the presence of a specific NSP inhibitor (if used), including elastase inhibitor (Abcam) for NE, sivelestat (Abcam) for PR3, and cathepsin G inhibitor I (Cayman Chemical; Ann Arbor, MI) for CatG. NSP concentrations were interpolated based on their activities relative to the standard curves created using active human NE protein (Sigma), active human PR3 protein (Sigma), and active human CatG protein (Sigma), respectively. Due to unavailability of commercial mouse and/or rat NE, PR3, and CatG proteins, the corresponding human proteins were used instead since their catalytic ability is considered to be conserved across species. A portion of each cell lysate sample was retained for protein quantification using a Pierce™ BCA Protein Assay Kit (Thermo Fisher). The NSP activities were normalized for the cell lysate protein concentrations.
The Pierce™ BCA Protein Assay Kit was used to measure the total protein of the samples after lysis to allow for subsequent normalization. The manufacturer’s instructions for use were followed when performing this assay on a portion of the sample lysates which were diluted in PBS, the same diluent as used for preparation of the standard. Plates were read on the Biotek Synergy plate reader with Gen5 software.

Where [1] appears, read: 5 mg/kg BID, curve fit with free min and max.

Turning to `Cn1c(=O)oc2ccc(-c3ccc(C[C@@H](C#N)NC(=O)[C@@H]4CNCCCO4)cc3)cc21` [brensocatib], the “sputum PR3 activity” value in the assay with PR3 is on record as “Dose-dependent reductions”. Further, the “Onset: Maximum reduction (plateau), NE” value in the assay with NE (setting [1]) is recorded as 80%. The “Onset: Time to reach 50% reduction, NE” value in the assay on NE (setting [1]) was determined as 4.3 days. Moreover, the “Onset: Time to reach max reduction, NE” value in the assay on NE (setting [1]) came out at 6.4 days. Besides, the “Percent change from vehicle NE” value in the assay on NE (after 1 day of treatment) is listed as −28% (p = 0.0826); with NE (after 4 days of treatment), −59% (p < 0.0001); in the assay with NE (after 7 days of treatment), −83% (p < 0.0001); in the assay with NE (after 10 days of treatment), −76% (p < 0.0001); with NE (after 14 days of treatment) it was −82% (p < 0.0001).
